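Each compound was tested at five concentrations against cells in 96-well plates for 48 hours. The concentration for 50% growth inhibition is given as GI50.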 Active and inactive are the calls of the source. Cut-off read from the data, not from the text of the source: active = GI50 up to about 1.1 µM and inactive = higher.
What was measured:
Test in all cases: inhibition of tumour cell growth, NCI panel, 48 h
[1] = test system: DLD-1
[2] = test system: DMS-114
[3] = test system: HOP-18
[4] = test system: M19-MEL
[5] = test system: SNB-78
[6] = test system: BT-549
[7] = test system: DU-145
[8] = test system: MCF7

Compound: Clc1ccc(CCn2cncn2)cc1
- GI50 [1]: > 100 µM (inactive)
- GI50 [2]: > 100 µM (inactive)
- GI50 [3]: > 100 µM (inactive)
- GI50 [4]: > 100 µM (inactive)
- GI50 [5]: > 100 µM (inactive)

Compound: Cc1ccc(-c2n[nH]c(=O)n2N2C(=O)c3ccccc3C2=O)cc1
- GI50 [6]: > 100 µM (inactive)
- GI50 [7]: > 100 µM (inactive)
- GI50 [8]: > 100 µM (inactive)

Compound: COC(=O)C1CC2CC1C1C2SC(F)(F)C1(F)F (stereo not given)
- GI50 [7]: > 100 µM (inactive)
- GI50 [8]: > 100 µM (inactive)

Compound: CC(=O)c1ccc(NC(=O)/C(=N\NC(N)=O)C(C#N)CC(C)(C)C=O)cc1 (stereo not given)
- GI50 [1]: > 100 µM (inactive)
- GI50 [2]: > 100 µM (inactive)
- GI50 [4]: > 100 µM (inactive)
- GI50 [5]: > 100 µM (inactive)

Compound: CC(C)Oc1c(O)c2c3c(oc(=O)n3C=CC2c2ccccc2F)c1OC(C)C (stereo not given)
- GI50 [7]: 63.8 µM (inactive)
- GI50 [8]: 28.8 µM (inactive)

Compound: O=[N+]([O-])C(=C/c1cccc2ccccc12)/C(=C\c1cccc2ccccc12)[N+](=O)[O-]
- GI50 [6]: 2.05 µM (inactive)
- GI50 [7]: 2.84 µM (inactive)
- GI50 [8]: 2.99 µM (inactive)

Compound: O=C(O)CNCCc1ccccc1
- GI50 [6]: > 100 µM (inactive)
- GI50 [7]: > 100 µM (inactive)
- GI50 [8]: > 100 µM (inactive)

Compound: COC(=O)C(CC(=O)c1cc2c(cc1I)OCO2)Cc1cc(OC)c(OC)c(OC)c1I (stereo not given)
- GI50 [1]: > 100 µM (inactive)
- GI50 [2]: 22.8 µM (inactive)
- GI50 [3]: > 100 µM (inactive)
- GI50 [4]: > 100 µM (inactive)

Compound: CCn1nc(C)c2c1C(=O)NCC(=O)N2
- GI50 [6]: > 100 µM (inactive)
- GI50 [7]: > 100 µM (inactive)

Compound: [O-]/[N+](=N/c1ncc(-c2ccccc2)cn1)c1ncc(-c2ccccc2)cn1
- GI50 [7]: > 100 µM (inactive)
- GI50 [8]: 36 µM (inactive)

Compound: Oc1cc(-c2ccc(Oc3ccccc3)cc2)nc2cc3c(cc12)OCO3
- GI50 [1]: > 100 µM (inactive)
- GI50 [2]: > 100 µM (inactive)
- GI50 [4]: > 100 µM (inactive)

Compound: CC1C=CN(N(C)C)C2=C1C(=O)c1cnccc1C2=O (stereo not given)
- GI50 [6]: 0.355 µM (active)
- GI50 [7]: 0.372 µM (active)
- GI50 [8]: 0.274 µM (active)

Compound: O=C1c2ccccc2C2(O)NC(=S)N(c3ccccc3)C12O (stereo not given)
- GI50 [1]: > 100 µM (inactive)
- GI50 [2]: > 100 µM (inactive)
- GI50 [3]: > 100 µM (inactive)
- GI50 [4]: > 100 µM (inactive)
- GI50 [5]: > 100 µM (inactive)

Compound: O=NN(CCF)C(=O)NC1CC2CCC1C2 (stereo not given)
- GI50 [1]: > 87.7 µM (inactive)
- GI50 [2]: > 100 µM (inactive)
- GI50 [3]: > 100 µM (inactive)
- GI50 [4]: > 100 µM (inactive)
- GI50 [8]: 98.9 µM (inactive)
- GI50 [5]: > 100 µM (inactive)

Compound: Cc1cc(Cl)ccc1NC(=O)CCCC(=O)C1CCCC1=O (stereo not given)
- GI50 [1]: > 100 µM (inactive)
- GI50 [2]: > 100 µM (inactive)
- GI50 [3]: > 100 µM (inactive)
- GI50 [4]: > 100 µM (inactive)
- GI50 [5]: > 100 µM (inactive)

Compound: CN(C)/N=C1\CC(c2ccccc2)C(C#N)(C#N)C1(C#N)C#N (stereo not given)
- GI50 [7]: 21 µM (inactive)
- GI50 [8]: 29.9 µM (inactive)

Compound: CCOC(=O)/C(=C/c1ccco1)P(=O)(OCC)OCC
- GI50 [1]: > 100 µM (inactive)
- GI50 [2]: > 100 µM (inactive)
- GI50 [3]: > 100 µM (inactive)
- GI50 [4]: > 100 µM (inactive)
- GI50 [5]: > 100 µM (inactive)

Compound: Cn1c(=O)oc2cc(C3CCC(=O)N3Cc3ccc(Cl)cc3)ccc21 (stereo not given)
- GI50 [1]: 92 µM (inactive)
- GI50 [2]: > 100 µM (inactive)
- GI50 [3]: > 100 µM (inactive)
- GI50 [4]: > 100 µM (inactive)
- GI50 [5]: > 100 µM (inactive)

Compound: O=C(Nc1ccccc1)N1CC(CN2CCN(c3ccccc3)CC2)OC1=O (stereo not given)
- GI50 [6]: > 100 µM (inactive)
- GI50 [7]: > 100 µM (inactive)
- GI50 [8]: > 100 µM (inactive)

Compound: CCCCCCCCC/C=C1\CC(CO)(COC(=O)c2ccccc2)OC1=O (stereo not given)
- GI50 [6]: 21.8 µM (inactive)
- GI50 [7]: 29.1 µM (inactive)
- GI50 [8]: 23.8 µM (inactive)

Compound: COc1ccc2c(c1)CC[C@@H]1[C@@H]2CC[C@]2(C)C(=O)/C(=C/c3ccc(O)c(OC)c3)C[C@@H]12
- GI50 [7]: 92.9 µM (inactive)
- GI50 [8]: 60.4 µM (inactive)

Compound: CCCCC1=NNC(=O)C1
- GI50 [6]: > 100 µM (inactive)
- GI50 [8]: > 100 µM (inactive)

Compound: NCc1ccccc1C1CSCSC1
- GI50 [1]: > 100 µM (inactive)
- GI50 [2]: > 100 µM (inactive)
- GI50 [4]: > 100 µM (inactive)
- GI50 [5]: > 100 µM (inactive)

Compound: O=c1c2cccnc2[nH]c2ccc3cn[nH]c3c12
- GI50 [6]: > 10 µM (inactive)
- GI50 [7]: > 10 µM (inactive)
- GI50 [8]: 7.06 µM (inactive)

Compound: O=C(/C=C/c1ccccc1O)/C=C/c1ccccc1O
- GI50 [6]: 1.24 µM (inactive)
- GI50 [7]: 1.51 µM (inactive)

Compound: O=C1c2cc3c(cc2CC12Cc1ccc4c(c1C2=O)CCC4)CCC3 (stereo not given)
- GI50 [7]: > 100 µM (inactive)
- GI50 [8]: > 100 µM (inactive)

Compound: COc1ccc(C(=O)N=C2N(c3ccccc3)C(=N/c3ccccc3)/C(=N\c3ccccc3)N2c2ccccc2)cc1
- GI50 [6]: 13.2 µM (inactive)
- GI50 [7]: > 100 µM (inactive)
- GI50 [8]: > 100 µM (inactive)

Compound: COC(=O)CNCC1OC2OC(C)(C)OC2C1N=[N+]=[N-] (stereo not given)
- GI50 [6]: > 100 µM (inactive)
- GI50 [7]: > 100 µM (inactive)
- GI50 [8]: > 100 µM (inactive)

Compound: COC(=O)C1=C(C(=O)OC)SC2(S1)C1=C(CCC1)SC(C(=O)OC)=C2C(=O)OC
- GI50 [6]: 16 µM (inactive)
- GI50 [7]: 4.4 µM (inactive)
- GI50 [8]: 4.33 µM (inactive)

Compound: Cc1ccccc1CN1CC2=C(CCN(Cc3ccccc3)C2=O)N2CCN=C12
- GI50 [6]: 14.8 µM (inactive)
- GI50 [7]: 6.14 µM (inactive)
- GI50 [8]: 4.86 µM (inactive)

Compound: O=C1OC(c2ccco2)=N/C1=C\c1ccc(Cl)c(Cl)c1
- GI50 [6]: > 100 µM (inactive)
- GI50 [7]: 98.6 µM (inactive)
- GI50 [8]: 3.67 µM (inactive)

— ChEMBL document CHEMBL1201862, “PubChem BioAssay data set” (2004)
